Results from PubChem BioAssay (NCI).
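Growth conditions: 96-well plates. Treatment: test compound, 48 hours, 5 concentrations. Analysis: linear interpolation between bracketing concentrations; unreached endpoints set to highest concentration. The concentration for full growth arrest is given as TGI.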

Columns and labels:
Assay in all cases: growth of human tumour cells (NCI), 48 h
[1] = system: HCC-2998 colon
[2] = system: HCT-15 colon
[3] = system: SW-620 colon
[4] = system: SF-539 CNS
[5] = system: NCI-H226 lung
[6] = system: NCI-H23 lung
[7] = system: HL-60(TB) leukemia
[8] = system: HOP-62 NSCLC
[9] = system: OVCAR-3 ovarian
[10] = system: SNB-19 CNS
[11] = system: HCT-116 colon
[12] = system: OVCAR-5 ovarian
[13] = system: IGROV1 ovarian
[14] = system: SK-MEL-28 melanoma
[15] = system: UACC-62 melanoma
[16] = system: SF-295 CNS
[17] = system: MALME-3M melanoma
[18] = system: SK-MEL-5 melanoma
[19] = system: A498 renal
[20] = system: RPMI-8226 leukemia

| SMILES | TGI [1] [µM] | TGI [2] [µM] | TGI [3] [µM] | TGI [4] [µM] | TGI [5] [µM] | TGI [6] [µM] | TGI [7] [µM] | TGI [8] [µM] | TGI [9] [µM] | TGI [10] [µM] | TGI [11] [µM] | TGI [12] [µM] | TGI [13] [µM] | TGI [14] [µM] | TGI [15] [µM] | TGI [16] [µM] | TGI [17] [µM] | TGI [18] [µM] | TGI [19] [µM] | TGI [20] [µM] |
| --- | --- | --- | --- | --- | --- | --- | --- | --- | --- | --- | --- | --- | --- | --- | --- | --- | --- | --- | --- | --- |
| O=C1CC(=O)c2c(O)cc(O)c(c2O)-c2c(ccc(O)c2O)C2=CC(=O)c3c(O)cc(O)c(c3O2)-c2c1ccc(O)c2O (tested in a mixture with another compound) | > 50 | > 50 | > 50 | > 50 | > 50 | > 50 | > 50 | > 50 | > 50 | > 50 | > 50 | > 50 | > 50 | > 50 | > 50 | > 50 | > 50 | > 50 | > 50 |  |
| O=C(CC/C=C(/CS(=O)(=O)c1ccccc1)S(=O)(=O)c1ccccc1)c1ccccc1 | > 100 | > 100 | > 100 | > 100 | > 100 | > 100 | > 100 | > 100 | > 100 | > 100 | > 100 | > 100 | > 100 | > 100 | > 100 | > 100 |  | > 100 | > 100 | > 100 |
| Nc1nc2c(c(=O)[nH]1)N(C=O)C(CNc1ccc(C(=O)N[C@@H](CCC(=O)O)C(=O)O)cc1)CN2 (some centres not stated) | > 125 | > 125 | > 125 | > 125 | > 125 | > 125 | > 31.4 | > 125 | > 125 | > 125 | > 125 | > 125 | > 125 | > 125 | > 125 | > 125 | > 125 | > 125 |  | > 125 |
| CC(=O)OCC1OC(n2cc(F)c(=O)[nH]c2=O)C(N)C(OC(C)=O)C1OC(C)=O (configuration not stated) | > 100 | > 100 | > 100 | > 100 | > 100 | > 100 | > 100 | > 100 | > 100 | > 100 | > 100 | > 100 | > 100 |  | > 100 | > 100 | > 100 | > 100 | > 100 | > 100 |
| CCOC(=O)c1sc2nc(SC)nc3c2c1NC(=O)CN3c1cccc(F)c1 |  |  | > 100 | 15.7 | 31.7 | > 100 | 24.4 | 28.3 | 43.9 | 47.9 | 53 | > 100 | > 100 | 22.9 | > 100 | 40.2 | > 100 | > 100 | 43.1 | 46.8 |
| C/C(=N\NS(=O)(=O)c1ccccc1)c1ccccc1 | > 100 | > 100 | > 100 | > 100 | > 100 | > 100 | > 100 | > 100 | > 100 | > 100 | > 100 | > 100 | > 100 | > 100 | > 100 | > 100 | > 100 | > 100 | > 100 | > 100 |
| CC(=O)NCCC1CN(C(=O)/C=C\C#C[Si](C)(C)C)c2ccccc21 (configuration not stated) | 43.2 | 48.9 | > 100 | 73.8 | 46 | 28.4 | 81.3 |  | 84.1 | 93.7 |  | 33.7 | 30.8 | > 100 | 32.4 | > 100 | 49.4 | > 100 | > 100 | > 100 |
